Results as given in the NIST ThermoML archive (doi:10.1021/acs.jced.5b00613).

Test: xn = mol fraction of the nth substance listed
Conditions: Liquid, Vibrating tube method

CCCCCCCCCCCCCCCC [hexadecane] + CCCCCC
mass density [kg/m3]
Conditions	100 kPa	1000 kPa	5000 kPa	10000 kPa	20000 kPa	30000 kPa	40000 kPa	50000 kPa	60000 kPa
298.15 K, x2 = 0.1985	759.7	760.3	763	766.3	772.3	777.9	783.2	788.1	–
298.15 K, x2 = 0.4136	744.4	745.1	748	751.4	757.8	763.7	769.2	774.4	779.5
298.15 K, x2 = 0.5007	736.7	737.5	740.4	744	750.4	756.5	762.2	767.5	772.6
298.15 K, x2 = 0.5966	726.9	727.5	730.6	734.3	741.1	747.4	753.2	758.6	763.9
298.15 K, x2 = 0.7928	700.2	700.8	704.3	708.5	715.9	722.7	729	734.8	740.4
323.15 K, x2 = 0.1985	742.3	743.2	746.2	749.9	756.7	763	768.7	774.2	779.4
323.15 K, x2 = 0.4136	726.2	727.1	730.4	734.4	741.6	748.3	754.3	760.1	765.4
323.15 K, x2 = 0.5007	717.7	719.1	722.6	726.7	734.1	741	747.2	753	758.5
323.15 K, x2 = 0.5966	707.8	708.9	712.4	716.7	724.4	731.5	737.9	744	749.7
323.15 K, x2 = 0.7928	679.1	680.6	684.7	689.6	698.3	706.2	713.2	719.7	725.7
348.15 K, x2 = 0.1985	724.4	725.2	728.7	732.9	740.6	747.6	754	760	–
348.15 K, x2 = 0.4136	708	709	712.8	717.3	725.6	733	739.7	746	–
348.15 K, x2 = 0.5007	698.3	700.1	704	708.6	717.2	724.9	731.8	738.2	–
348.15 K, x2 = 0.5966	687.2	689.3	693.5	698.5	707.5	715.4	722.6	729.3	–
348.15 K, x2 = 0.7928	658.2	659.5	664.5	670.2	680.3	689.2	697.1	–	–
